Laboratory results reported in the supplement of paper PMC10307832.

Tests used:
Assay in all cases: relative viability (nuclei count vs DMSO), 5 days (fraction); higher = more cells survive
[1] = compound: COc1cc2nc(N3CCCN(C)CC3)nc(NC3CCN(Cc4ccccc4)CC3)c2cc1OC + O=C(c1cc(Cc2n[nH]c(=O)c3ccccc23)ccc1F)N1CCN(C(=O)C2CC2)CC1 [Olaparib] (partner 8 µM)
Outline: (§1)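 Values are medians from duplicate plates. Each reflects relative viability, defined as the nuclei count of treated wells over that of vehicle wells. Lung cancer cell lines in 1536-well plates were pin-tool dosed one day after seeding with one drug alone or with a fixed anchor-drug dose plus five library-drug doses (not always all listed) in √10 steps, then fixed, stained and imaged at 4× after 5 days.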

[2] = compound: COc1cc2nc(N3CCCN(C)CC3)nc(NC3CCN(Cc4ccccc4)CC3)c2cc1OC + Nc1nc2[nH]cc(CCc3ccc(C(=O)N[C@@H](CCC(=O)O)C(=O)O)cc3)c2c(=O)[nH]1 [Pemetrexed] (partner 0.2 µM)
Outline: as §1

[3] = compound: Cc1cc([C@@H](C)Nc2ccccc2C(=O)O)c2nc(N3CCOCC3)cc(=O)n2c1 [AZD6482] + O=C(CCCCCCC(=O)Nc1ccccc1)NO [Vorinostat] (partner 1 µM)
Outline: as §1

[4] = compound: Cc1cc([C@@H](C)Nc2ccccc2C(=O)O)c2nc(N3CCOCC3)cc(=O)n2c1 [AZD6482] + CS(=O)(=O)N1CCN(Cc2cc3nc(-c4cccc5[nH]ncc45)nc(N4CCOCC4)c3s2)CC1 [Pictilisib] (partner 1 µM)
Outline: as §1

Cell Line	relative viability ([1]; first compound 0.2 µM)	relative viability ([1]; first compound 0.6325 µM)	relative viability ([1]; first compound 2 µM)	relative viability ([1]; first compound 6.325 µM)	relative viability ([2]; first compound 0.2 µM)	relative viability ([2]; first compound 0.6325 µM)	relative viability ([2]; first compound 2 µM)	relative viability ([2]; first compound 6.325 µM)	relative viability ([3]; first compound 0.08 µM)	relative viability ([3]; first compound 0.253 µM)	relative viability ([3]; first compound 0.8 µM)	relative viability ([3]; first compound 2.53 µM)	relative viability ([3]; first compound 8 µM)	relative viability ([4]; first compound 0.08 µM)	relative viability ([4]; first compound 0.253 µM)	relative viability ([4]; first compound 0.8 µM)	relative viability ([4]; first compound 2.53 µM)	relative viability ([4]; first compound 8 µM)
201T	0.849	0.853	0.875	0.802	0.31	0.334	0.335	0.279	0.965	0.938	0.983	0.764	0.862	0.612	0.672	0.66	0.506	0.619
A549	0.309	0.374	0.206	0.368	–	–	–	–	–	–	–	–	–	0.522	0.472	0.523	0.264	0.386
A-427	0.708	0.705	0.833	0.768	0.899	1	1.03	1.03	0.806	0.843	0.87	0.706	0.826	0.655	0.697	0.735	0.601	0.682
ABC-1	1.17	0.768	0.983	0.915	–	–	–	–	1.11	0.877	1.01	0.83	0.986	0.789	0.623	0.773	0.686	0.736
BEN	1.01	1.07	1.12	1.07	0.827	0.943	1.01	0.716	0.541	0.546	0.594	0.467	0.578	0.607	0.506	0.655	0.434	0.557
CAL-12T	0.676	0.689	0.8	0.699	1.23	1.01	1.19	1.04	0.715	0.666	0.737	0.548	0.556	0.395	–	0.571	0.291	0.432
COR-L23	0.348	0.38	0.414	0.339	0.205	0.21	0.208	0.199	0.269	0.512	0.505	0.28	0.442	0.424	0.642	0.765	0.534	0.748
COR-L 105	0.632	0.626	0.624	0.372	1.08	1.22	1.15	0.798	0.75	0.663	0.907	0.649	0.648	0.362	0.388	0.428	0.265	0.309
Calu-6	0.598	0.542	0.591	0.537	–	–	–	–	–	–	–	–	–	0.823	0.85	0.846	0.673	0.937
ChaGo-K-1	0.386	0.44	0.375	0.39	0.255	0.256	0.262	0.264	0.752	0.7	0.744	0.708	0.773	0.765	–	1.15	1.01	0.977
EBC-1	0.698	0.647	0.757	0.5	–	–	–	–	–	–	–	–	–	0.314	0.295	0.209	0.197	0.292
EKVX	0.838	0.873	0.808	0.776	0.422	0.404	0.404	0.41	0.537	0.662	0.578	0.485	0.361	0.378	0.326	0.441	0.235	0.467
EMC-BAC-2	0.494	0.406	0.438	0.511	0.437	0.402	0.413	0.486	0.534	0.413	0.526	0.341	0.316	0.487	0.51	0.505	0.374	0.555
EPLC-272H	0.738	0.888	0.767	0.329	0.335	0.403	0.397	0.365	0.466	0.397	0.474	0.256	0.252	0.325	–	0.297	0.287	0.333
H3255	0.592	0.552	0.541	0.562	0.563	0.557	0.595	0.547	0.741	0.871	0.764	0.697	0.689	0.461	0.434	0.453	0.305	0.47
HARA	0.79	1.1	0.832	1.05	0.258	0.227	0.227	0.269	0.557	0.574	0.465	0.357	0.437	0.254	0.395	0.423	–	0.59
HCC-15	0.738	0.674	0.754	0.695	0.216	0.225	0.214	0.208	0.778	0.806	0.858	0.685	0.739	0.642	0.651	0.766	0.641	0.849
HCC-44	0.974	1.02	0.953	0.977	0.67	0.636	0.611	0.646	1.08	1.17	1.28	1.29	1.21	0.416	0.589	0.567	0.452	0.531
HCC-78	0.944	0.66	0.787	0.831	0.912	0.899	0.918	1.01	0.499	0.389	0.395	0.298	0.341	0.218	0.186	0.184	0.182	0.214
